Read-outs that look alike come from different tables or passages of the source.
Columns and labels:
M. persicae = experiment: Insecticidal % control against M. persicae, Colby synergy; type: in vivo, Myzus persicae
Procedure: (§1) Colby's method is used to determine if synergy exists for a combination of active ingredients. According to Colby, the expected action (E) of active ingredients A+B is:
(§2) [formula] • where E=expected efficacy, A and B=the efficacy of two active ingredients A and B at a given dose.
(§3) When the percentage of control observed (O) for the combination is greater than the expected (E) percentage, there is a synergistic effect. The synergism ratio (R) is calculated as the ratio between the […].
(§4) The insecticidal compounds A (Novaluron) and B (mix partner) are formulated as equivalent suspension concentrates to eliminate the effects of differing formulation inerts on biological activity. Efficacy of the insecticidal compositions is evaluated with reference to a scale of 0% to 100% in comparison with untreated control plots. 0 means no damage and 100 means complete destruction of the harmful pests.
(§5) Likewise following experimentations were done on other mixtures of novaluron on various pests, the result of which are summarized in the below tables: […]

B. tabaci = experiment: Insecticidal % control against B. tabaci, Colby synergy; type: in vivo, Bemisia tabaci; settings: Table 7, 72 hours after treatment
Procedure: as §1, §2, §3, §4, §5

S. frugiperda = experiment: Insecticidal % control against S. frugiperda, Colby synergy; type: in vivo, Spodoptera frugiperda; settings: 120 hours after treatment
Procedure: as §1, §2, §3, §4, §5

T. urticae = experiment: Insecticidal % control against T. urticae, Colby synergy; type: in vivo, Tetranychus urticae
Procedure: as §1, §2, §3, §4, §5

[1] = test system: Cotton Leafworm, S. littoralis; experiment: Insecticidal % control against Cotton Leafworm, S. littoralis, Colby synergy; type: in vivo, Spodoptera littoralis; settings: 72 hours after treatment
Procedure: as §1, §2, §3, §4, §5

F. occidentalis = experiment: Insecticidal % control against F. occidentalis, Colby synergy; type: in vivo, Frankliniella occidentalis
Procedure: as §1, §2, §3, §4, §5

H. halys = experiment: Insecticidal % control against H. halys, Colby synergy; type: in vivo, Halyomorpha halys; settings: Table 20 B; 144 hours after treatment; 5 ppm
Procedure: as §1, §2, §3, §4, §5

A. gossypii = experiment: Insecticidal % control against A. gossypii, Colby synergy; type: in vivo, Aphis gossypii; settings: 96 hours after treatment
Procedure: as §1, §2, §3, §4, §5

T. absoluta = experiment: Insecticidal % control against T. absoluta, Colby synergy; type: in vivo, Tuta absoluta; settings: 72 hours after treatment
Procedure: as §1, §2, §3, §4, §5

[2] = test system: Spodoptera littoralis larvae; experiment: Larval weight gain (LWG) of S. littoralis on treated castor bean leaves; type: in vivo; settings: Table 3
Procedure: (§6) The experiments were conducted by applying commercially available compositions of Novaluron (Rimon®) and methoxyfenozide (Runner®) alone or together. The compositions were diluted with water to the stated concentration of the active compound.
(§7) The following active ingredients and their mixtures were evaluated: • Novaluron: 0.01 mg a.i./liter • Methoxyfenozide: 0.01 mg a.i./liter • Novaluron+Methoxyfenozide 0.01 mg a.i./liter+0.01 mg a.i./liter
(§8) To evaluate the insecticidal control of novaluron and methoxyfenozide alone and in a binary mixture, castor bean leaves were treated with the above listed treatments. The treated leaves were exposed for 4-day feeding to 3rd-instar Spodoptera littoralis and the larvae were exposed for additional 4 days on untreated leaves. Larval mortality was determined at day 4 and 8. The treatments were composed of 3-5 replicates of 10 larvae each.
Larval weight gain (LWG) was also measured in order to determine the effectiveness of the mixture of novaluron and methoxyfenozide when compared to the solo application of novaluron and methoxyfenozide.
Table 3 below summarizes the larval weight gain (LWG) (compared to the control), that was determined 4 days after treatment for the mixture of novaluron and methoxyfenozide.

[3] = test system: Spodoptera littoralis larvae; experiment: Larval mortality of S. littoralis fed on treated castor bean leaves (tank mix novaluron + methoxyfenozide), Colby synergy; type: in vivo; settings: Spodoptera littoralis, in Ricinus communis, Table 1, 0.01 mg a.i./L of each active
Procedure: as §1, §2, §3
A representative experiment was conducted to evaluate the insecticidal control of novaluron, a compound II, namely methoxyfenozide as well as a mixture of novaluron and methoxyfenozide against Spodoptera littoralis larvae.
as §6, §7, §8

COP(=O)(NC(C)=O)SC (centres unmarked) [Acephate]
Observed % control (O) (M. persicae; Table 17 A, 72 hours after treatment, 2 ppm): 66% | Observed % control (O) (M. persicae; Table 17 B, 7 days after treatment, 2 ppm): 75.0%

C[C@]1(COC(=O)C2CC2)[C@@H]2C[C@H](O)[C@@]3(C)Oc4cc(-c5cccnc5)oc(=O)c4[C@H](O)[C@@H]3[C@@]2(C)CC[C@@H]1OC(=O)C1CC1 [Afidopyropen]
Observed % control (O) (B. tabaci; 7 ppm): 35.1% | Observed % control (O) (B. tabaci; 35 ppm): 49.8%

CN(C(=O)c1ccccc1)c1cccc(C(=O)Nc2c(Br)cc(C(F)(C(F)(F)F)C(F)(F)F)cc2C(F)(F)F)c1F [Broflanilide]
Observed % control (O) (S. frugiperda; Table 9, 0.001 ppm): 10% | Observed % control (O) (S. frugiperda; Table 9, 0.01 ppm): 20%

CCOCn1c(-c2ccc(Cl)cc2)c(C#N)c(Br)c1C(F)(F)F [Chlorfenapyr]
Observed % control (O) (T. urticae; Table 14 A, 48 hours after treatment, 2.4 ppm): 64% | Observed % control (O) (T. urticae; Table 14 A, 48 hours after treatment, 24 ppm): 79% | Observed % control (O) (T. urticae; Table 14 B, 72 hours after treatment, 2.4 ppm): 78% | Observed % control (O) (T. urticae; Table 14 B, 72 hours after treatment, 24 ppm): 86% | Observed % control (O) (T. urticae; Table 14 C, 7 days after treatment, 2.4 ppm): 86% | Observed % control (O) (T. urticae; Table 14 C, 7 days after treatment, 24 ppm): 94%

CN/C(=N/CC1CCOC1)N[N+](=O)[O-] (centres unmarked) [Dinotefuran]
Observed % control (O) ([1]; Table 16, 0.04 ppm): 25%

N#Cc1nn(-c2c(Cl)cc(C(F)(F)F)cc2Cl)c(N)c1[S+]([O-])C(F)(F)F (centres unmarked) [Fipronil]
Observed % control (O) (F. occidentalis; Table 20 C, 48 hours after treatment, 1 ppm): 66.0% | Observed % control (O) (F. occidentalis; Table 20 D, 72 hours after treatment, 1 ppm): 70.0% | Observed % control (O) (F. occidentalis; Table 20 D, 72 hours after treatment, 100 ppm): 90.0% | Observed % control (O) (F. occidentalis; Table 20 E, 7 days after treatment, 1 ppm): 84.0% | Observed % control (O) (H. halys): 87.5% | Observed % control (O) ([1]; Table 20 A, 0.002 ppm): 0% | Observed % control (O) ([1]; Table 20 A, 0.02 ppm): 5%

O=C(N=c1ccccn1Cc1ccc(Cl)nc1)C(F)(F)F [Flupyrimin]
Observed % control (O) ([1]; Table 12, 12 ppm): 0%

CCN1OCC(NC(=O)c2ccc(C3=NOC(c4cc(Cl)c(F)c(Cl)c4)(C(F)(F)F)C3)cc2C)C1=O (centres unmarked) [Isocycloseram]
Observed % control (O) ([1]; Table 8, 12 ppm): 12.5%

CCOC(=O)CC(SP(=S)(OC)OC)C(=O)OCC (centres unmarked) [Malathion]
Observed % control (O) (F. occidentalis; Table 18 B, 72 hours after treatment, 5 ppm): 6.0% | Observed % control (O) (F. occidentalis; Table 18 B, 72 hours after treatment, 500 ppm): 80.0% | Observed % control (O) (A. gossypii; Table 18 A, 100 ppm): 81.7%

COc1cccc(C(=O)NN(C(=O)c2cc(C)cc(C)c2)C(C)(C)C)c1C [Methoxyfenozide]
Observed % control (O) (T. absoluta; Table 2, 3 ppm): 16.7% | LWG % rel. Control ([2]; 4 days after treatment, 0.01 mg a.i./L of each active): 93 % rel. Control | effect on the weight gain of the Spodoptera littoralis larvae ([2]; applied alone): neither novaluron nor methoxyfenozide alone have any effect on the weight gain | mortality at 0.01 µg/mL ([3]; 96 h, 3rd-instar larvae, 4-day feeding on treated leaves, day 4, read-out: Larval mortality, % (observed) 4 d): 4.1% | mortality at 0.01 µg/mL ([3]; 4 days on treated then 4 days on untreated leaves, day 8, read-out: Larval mortality, % (observed) 8 d): 12%

CN(C(=O)c1cc(-c2cnn(-c3c(Cl)cc(C(F)(C(F)(F)F)C(F)(F)F)cc3Cl)c2)cnc1Cl)C1CC1 [Nicofluprole]
Observed % control (O) ([1]; Table 21, 12 ppm): 0%

Cc1cc(C)c(C2=C(OC(=O)CC(C)(C)C)C3(CCCC3)OC2=O)c(C)c1 [Spiromesifen]
Observed % control (O) (A. gossypii; Table 19 A, 500 ppm): 75.3% | Observed % control (O) (M. persicae; Table 19 B, 7 days after treatment, 5 ppm): 58.3%

CCOC(=O)OC1=C(c2cc(C)ccc2C)C(=O)N[C@]12CC[C@@H](OC)CC2 [Spirotetramat]
Observed % control (O) (M. persicae; Table 6 A, 72 hours after treatment, 100 ppm): 68% | Observed % control (O) (M. persicae; Table 6 B, 7 days after treatment, 100 ppm): 85.7% | Observed % control (O) (T. urticae; Table 6 C, 48 hours after treatment, 600 ppm): 8.0% | Observed % control (O) (T. urticae; Table 6 D, 72 hours after treatment, 6 ppm): 6.0% | Observed % control (O) (T. urticae; Table 6 D, 72 hours after treatment, 600 ppm): 14.0% | Observed % control (O) (T. urticae; Table 6 E, 7 days after treatment, 600 ppm): 16.2%

CC(c1ccc(C(F)(F)F)nc1)S(C)(=O)=NC#N (centres unmarked) [Sulfoxaflor]
Observed % control (O) (M. persicae; Table 15 A, 48 hours after treatment, 0.5 ppm): 64% | Observed % control (O) (M. persicae; Table 15 B, 72 hours after treatment, 0.5 ppm): 70% | Observed % control (O) (M. persicae; Table 15 B, 72 hours after treatment, 2.5 ppm): 82%

CNC(=O)c1cc(C#N)cc(C)c1NC(=O)c1cc(Cn2nnc(C(F)(F)F)n2)nn1-c1ncccc1Cl [Tetraniliprole]
Observed % control (O) (S. frugiperda; Table 10 A, 0.001 ppm): 0% | Observed % control (O) (S. frugiperda; Table 10 A, 0.01 ppm): 0% | Observed % control (O) ([1]; Table 10 B, 0.004 ppm): 7.5% | Observed % control (O) ([1]; Table 10 B, 0.02 ppm): 17.5% | Observed % control (O) ([1]; Table 10 B, 0.1 ppm): 95%

CCN(C(=O)CCSCCC(F)(F)F)c1cn(-c2cccnc2)nc1Cl [Tyclopyrazoflor]
Observed % control (O) ([1]; Table 13, 12 ppm): 12.5%

Dicloromezotiaz
Observed % control (O) ([1]; Table 11, 12 ppm): 0%

Spinetoram
Observed % control (O) (S. frugiperda; Table 5 A, 0.01 ppm): 20% | Observed % control (O) (S. frugiperda; Table 5 A, 0.025 ppm): 30% | Observed % control (O) (S. frugiperda; Table 5 A, 0.05 ppm): 45% | Observed % control (O) (F. occidentalis; Table 5 D, 48 hours after treatment, 3.5 ppm): 18.0% | Observed % control (O) (F. occidentalis; Table 5 D, 48 hours after treatment, 350 ppm): 78.0% | Observed % control (O) (F. occidentalis; Table 5 E, 72 hours after treatment, 3.5 ppm): 22.0% | Observed % control (O) (F. occidentalis; Table 5 E, 72 hours after treatment, 350 ppm): 82.0% | Observed % control (O) (F. occidentalis; Table 5 F, 7 days after treatment, 3.5 ppm): 30.0% | Observed % control (O) (F. occidentalis; Table 5 F, 7 days after treatment, 350 ppm): 82.0% | Observed % control (O) (T. absoluta; Table 5 C, 1 ppm): 50% | Observed % control (O) (T. absoluta; Table 5 C, 3 ppm): 33.3% | Observed % control (O) (T. absoluta; Table 5 C, 10 ppm): 83.3% | Observed % control (O) ([1]; Table 5 B, 0.004 ppm): 0% | Observed % control (O) ([1]; Table 5 B, 0.1 ppm): 80%

Spinosad
Observed % control (O) (F. occidentalis; Table 4 A, 48 hours after treatment, 5.3 ppm): 2.0% | Observed % control (O) (F. occidentalis; Table 4 B, 72 hours after treatment, 5.3 ppm): 4.0% | Observed % control (O) (F. occidentalis; Table 4 B, 72 hours after treatment, 530 ppm): 32.0% | Observed % control (O) (F. occidentalis; Table 4 C, 7 days after treatment, 5.3 ppm): 32.0% | Observed % control (O) (F. occidentalis; Table 4 C, 7 days after treatment, 530 ppm): 60.0%
